Patent US20140113964A1, “METHOD OF PREVENTING AND TREATING ALLERGIC AIRWAY DISEASES VIA INTRANASAL GABEXATE MESILATE” (priority 2012, published 2014)
Where a SMILES comes first, the peptide text is derived from it. [ ]: non-standard residue; d: D form. The star is where a group is joined. Sta = CC(C)C[C@H](N)[C@@H](O)CC(=O)O; Isovaleryl = CC(C)CC(=O)*

Legend:
[1] = system: protease activity of CraA; experiment: azocasein assay of the protease activity of CraA with protease inhibitors; assay type: biochemical, American cockroach; conditions: azocasein substrate, 37° C., 30 mins, absorbance at 440 nm; FIG. 1
Method: In brief, azocasein was used as a substrate to measure the protease activity of CraA. Twenty μL of CraA was added into 80 μL azocasein solution (0.5% (w/v), lysed in 100 mM phosphate buffer) and incubated in 37° C. water bath for 30 mins. Afterwards, 20 μL of 10% trichloroacetic acid was added to stop the reaction. Further, the mixture was centrifuged with 6000 g for 10 mins. Consequently, 50 μL of supernatant was mixed with 50 μL of NaOH (0.2N), and the absorbance was measure at 440 nm. Moreover, various protease inhibitors were applied to inhibit the protease activity of CraA, for instance, PMSF (serine protease), aprotinin (serine protease), pepstatin (aspartic acid protease), E-64 (cysteine protease) and EDTA (metalloprotease), so as to confirm the serine protease activity of CraA.
With reference to FIG. 1 for a schematic view of inhibition of protease activity of CraA in accordance with an embodiment of the present invention, the protease activity inhibition was shown after treatment of different kinds of […].

[2] = system: IL-8, MCP-1, GM-CSF and CCL20 genes; experiment: RT-PCR of chemokine genes (IL-8, MCP-1, GM-CSF, CCL20) in Beas2B cells treated with CraA; assay type: cell-based, Human; conditions: pre-treatment 30 mins, then 5 μg/mL CraA, increasing doses; FIG. 7
Method: Referring to FIG. 4, the mRNA levels of various cytokines in response to treatment of CraA was measured by RT-PCR. To be brief, 3×10^5 Beas2B cells were seeded in a 6-well plate and treated with 5 μg/mL of CraA for 1, 2, 3, 4, 5, 16 and 24 hrs, respectively. After the treatment, the cells were harvested by TRIzol (Invitrogen), and RNA of the cells was extracted. The extracted RNA was reverse-transcribed into cDNA by SuperScript polymerase (Invitrogen) according to the manufacturer's instruction. Moreover, IL-8, MCP-1, GM-CSF and CCL20 genes were amplified by RT-PCR and analyzed by 2% agarose gel. The expression levels of the above mentioned genes were normalized with the expression of β-actin.

[3] = system: murine asthma model; conditions: intra-peritoneal injection; cited from earlier work
[4] = system: Beas2B cells; experiment: CraA-induced dissociation of Beas2B cells, bright field microscope; assay type: cell-based, Human; conditions: 36, 75, 150 or 300 μg/mL gabexate mesilate for 30 mins, then 5 μg/mL CraA; FIG. 6
Method: With reference to FIG. 2 is a schematic view of Beas2B cells treated with various doses of CraA in accordance with an embodiment of the present invention, 3×10^5 Beas2B cells were seeded in a 6-well plate and treated with 0, 5, 10, 20, 30 and 40 μg/mL of CraA, respectively. Afterwards, the cells were observed by the bright field microscope.

[5] = system: IL-8 and MCP-1 proteins; experiment: IL-8 and MCP-1 protein levels in Beas2B cells treated with CraA; assay type: cell-based, Human; conditions: pre-treatment 30 mins, then 5 μg/mL CraA, time courses; FIG. 8
Method: With reference to FIGS. 6-8 for a schematic view of protection effects of gabexate mesilate (GM) on Beas2B cells treated with CraA, a schematic view of chemokines detected by RT-PCR in Beas2B cells treated with CraA and gabexate mesilate and a quantification result of IL-8 and MCP-1 proteins in Beas2B cells treated with CraA and gabexate mesilate in accordance with an embodiment of the present invention, 3×10^5 Beas2B cells were seeded in a 6-well plate and subsequently treated with gabexate mesilate for 30 mins. Afterwards, the cells were further treated with 5 μg/mL of CraA. Consequently, the cells were either observed by bright field microscope and analyzed the gene expression and the protein level of the cytokines, such as IL-8, MCP-1, GM-CSF and CCL20, as mentioned above.

[6] = system: Beas2B cells; experiment: cell viability of Beas2B cells, trypan blue staining and counting; assay type: cell-based, Human
Method: With reference to FIG. 5 for a schematic view of cell viability of Beas2B cells treated with gabexate mesilate (GM) in accordance with an embodiment of the present invention, 3×10^5 Beas2B cells were seeded in a 3.5-cm dish with subsequently starvation for 16 hrs. After treating the cells with gabexate mesilate of various concentrations for 24 hrs, the cells were stained with trypan blue and counted the numbers of total cells, dead cells and survived cells so as to convert the numbers into a viability of the cells.
Referring to FIG. 5, the IC50 of the cells to gabexate mesilate is 600 μg/mL, that is, the cell viability with respect to gabexate mesilate at concentration of 600 μg/mL is 50%. […] Accordingly, the pharmaceutical effective amount of the composition comprising gabexate mesilate may be between 1-600 μg/mL, preferably between 10-300 μg/mL.

CC(C)CC(=O)N[C@H](C(=O)N[C@H](C(=O)N[C@@H](CC(C)C)[C@@H](O)CC(=O)N[C@@H](C)C(=O)N[C@@H](CC(C)C)[C@@H](O)CC(=O)O)C(C)C)C(C)C [pepstatin] (Isovaleryl-VV[Sta]A[Sta]-OH)
inhibition of the protease activity of CraA [1]: not significantly inhibited

CC(C)C[C@H](NC(=O)[C@H]1O[C@@H]1C(=O)O)C(=O)NCCCCN=C(N)N [E-64]
inhibition of the protease activity of CraA [1]: not significantly inhibited

aprotinin
inhibition of the protease activity of CraA [1]: obviously inhibited

O=C(O)CN(CCN(CC(=O)O)CC(=O)O)CC(=O)O [EDTA]
inhibition of the protease activity of CraA [1]: not significantly inhibited

O=S(=O)(F)Cc1ccccc1 [PMSF]
inhibition of the protease activity of CraA [1]: obviously inhibited

CCOC(=O)c1ccc(OC(=O)CCCCCN=C(N)N)cc1.CS(=O)(=O)O [gabexate mesilate]
expression of IL-8, MCP-1, GM-CSF and CCL20 genes induced by CraA [2]: obviously decreases the gene expression induced by CraA | allergen-induced airway inflammation and eosinophilia [3]: attenuates allergen-induced airway inflammation and eosinophilia | dissociation of Beas2B cells treated with CraA [4]: reverse the dissociation of the cells | protein levels of IL-8 and MCP-1 [5]: significantly decreased | survived cells ([6]; 1200 μg/mL, 24 hrs): no survived cells | IC50 of the cells to gabexate mesilate (cell viability) ([6]; Beas2B cells, 24 hrs treatment, trypan blue, FIG. 5): 600 µg/mL
